In patent US10370371B2, “Substituted pyrimidine Bmi-1 inhibitors” (PTC Therapeutics, Inc., priority 2013, dated 2019):
pEC50: −log10 of the molar value.

Legend:
Bmi-1 protein = assay: Sandwich ELISA Assay (Bmi-1 protein level in HT-1080 cells); type: cell-based
Summary of the method: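 HT-1080 cells were treated with compounds (0.5% DMSO final) for 40-48 h at 37 °C. Lysates were assayed by sandwich ELISA: mouse anti-Bmi-1 capture, rabbit anti-Bmi-1 and HRP anti-rabbit detection, TMB read at OD450 (OD570 reference). Levels were quantified against a recombinant GST-Bmi-1 standard curve (125-8000 pg/mL).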

SMILES	melting point	pEC50 (Bmi-1 protein)
CC(C)c1nc2ccc(F)cc2n1-c1cc(N)nc(Nc2ccc(OC(F)F)cc2)n1 [Cpd 79, N^2-[4-(difluoromethoxy)phenyl]-6-[6-fluoro-2-(propan-2-yl)-1H-benzimidazol-1-yl]pyrimidine-2,4-diamine]	167 to 169 °C	7.00 to 8.00
Nc1cc(-n2c(C3CC3)nc3cc(F)ccc32)nc(Nc2ccc(OC(F)F)cc2)n1 [Cpd 80, 6-(2-cyclopropyl-5-fluoro-1H-benzimidazol-1-yl)-N^2-[4-(difluoromethoxy)phenyl]pyrimidine-2,4-diamine]	136 to 138 °C	7.00 to 8.00
CC(C)c1nc2cc(F)ccc2n1-c1cc(N)nc(Nc2ccc(OC(F)F)cc2)n1 [Cpd 81, N^2-[4-(difluoromethoxy)phenyl]-6-[5-fluoro-2-(propan-2-yl)-1H-benzimidazol-1-yl]pyrimidine-2,4-diamine]	118 to 120 °C	5.52 to 7.00
Nc1cc(-n2c(C(F)F)nc3ccccc32)nc(Nc2ccc(OC(F)F)cc2)n1 [Cpd 88, N^2-[4-(difluoromethoxy)phenyl]-6-[2-(difluoromethyl)-1H-benzimidazol-1-yl]pyrimidine-2,4-diamine]	114 to 115 °C	8.00 to 9.00
CC(C)c1nc2ccccc2n1-c1cc(N)nc(Nc2ccc(OC(F)F)cc2)n1 [Cpd 89, N^2-[4-(difluoromethoxy)phenyl]-6-[2-(propan-2-yl)-1H-benzimidazol-1-yl]pyrimidine-2,4-diamine]	184 to 187 °C	7.00 to 8.00
Nc1cc(-n2c(C3CC3)nc3cc(F)ccc32)nc(Nc2ccc(C(F)(F)F)cc2)n1 [Cpd 103, 6-(2-cyclopropyl-5-fluoro-1H-benzimidazol-1-yl)-N^2-[4-(trifluoromethyl)phenyl]pyrimidine-2,4-diamine]	237 to 238 °C	7.00 to 8.00
Cc1nc2cc(F)ccc2n1-c1cc(N)nc(Nc2ccc(OC(F)F)c(F)c2)n1 [Cpd 105, N^2-[4-(difluoromethoxy)-3-fluorophenyl]-6-(5-fluoro-2-methyl-1H-benzimidazol-1-yl)pyrimidine-2,4-diamine]	172 to 173 °C	7.00 to 8.00
COc1ccn2nc(C3CC3)c(-c3cc(N)nc(Nc4ccc(C(F)(F)F)cc4)n3)c2c1 [Cpd 106, 6-(2-cyclopropyl-5-methoxypyrazolo[1,5-a]pyridin-3-yl)-N^2-[4-(trifluoromethyl)phenyl]pyrimidine-2,4-diamine]	172 to 174 °C	5.52 to 7.00
CCc1nn2ccc(F)cc2c1-c1cc(N)nc(Nc2ccc(C(F)(F)F)cc2)n1 [Cpd 111, 6-(2-ethyl-5-fluoropyrazolo[1,5-a]pyridin-3-yl)-N^2-[4-(trifluoromethyl)phenyl]pyrimidine-2,4-diamine]	153 to 157 °C	7.00 to 8.00
Cc1nn2c(=O)n(C)c(C)cc2c1-c1cc(N)nc(Nc2ccc(C(F)(F)F)cc2)n1 [Cpd 117, 3-(6-amino-2-{[4-(trifluoromethyl)phenyl]amino}pyrimidin-4-yl)-2,5,6-trimethylpyrazolo[1,5-c]pyrimidin-7(6H)-one]	270 to 273 °C	5.52 to 7.00
Nc1cc(-c2c(C3CC3)nn3ccccc23)nc(Nc2ccc(C(F)(F)F)cc2)n1 [Cpd 126, 6-(2-cyclopropylpyrazolo[1,5-a]pyridin-3-yl)-N^2-[4-(trifluoromethyl)phenyl]pyrimidine-2,4-diamine]	181 to 183 °C	5.52 to 7.00
COc1ccc(Nc2nc(N)cc(-n3c(C)nc4ccccc43)n2)cc1 [Cpd 129, N^2-(4-methoxyphenyl)-6-(2-methyl-1H-benzimidazol-1-yl)pyrimidine-2,4-diamine]	149 to 150 °C	≥ 9.00
Cc1nc2ccccc2n1-c1cc(N)nc(Nc2ccc3c(c2)OCO3)n1 [Cpd 130, N^2-(1,3-benzodioxol-5-yl)-6-(2-methyl-1H-benzimidazol-1-yl)pyrimidine-2,4-diamine]	118 to 119 °C	8.00 to 9.00
Cc1ccc(Nc2nc(N)cc(-n3c(C)nc4ccc(F)cc43)n2)cc1 [Cpd 134, 6-(6-fluoro-2-methyl-1H-benzimidazol-1-yl)-N^2-(4-methylphenyl)pyrimidine-2,4-diamine]	118 to 120 °C	8.00 to 9.00
Cc1nc2ccc(F)cc2n1-c1cc(N)nc(Nc2ccc(Cl)cc2)n1 [Cpd 135, N^2-(4-chlorophenyl)-6-(6-fluoro-2-methyl-1H-benzimidazol-1-yl)pyrimidine-2,4-diamine]	149 to 151 °C	7.00 to 8.00
Cc1nc2ccc(F)cc2n1-c1cc(N)nc(Nc2ccc(N(C)C)cc2)n1 [Cpd 136, N^2-[4-(dimethylamino)phenyl]-6-(6-fluoro-2-methyl-1H-benzimidazol-1-yl)pyrimidine-2,4-diamine]	232 to 235 °C	8.00 to 9.00
Cc1nc2ccc(F)cc2n1-c1cc(N)nc(Nc2ccc(C#N)cc2)n1 [Cpd 137, 4-{[4-amino-6-(6-fluoro-2-methyl-1H-benzimidazol-1-yl)pyrimidin-2-yl]amino}benzonitrile]	183 to 185 °C	5.52 to 7.00
Cc1nc2ccc(F)cc2n1-c1cc(N)nc(Nc2cccc(F)c2)n1 [Cpd 138, 6-(6-fluoro-2-methyl-1H-benzimidazol-1-yl)-N^2-(3-fluorophenyl)pyrimidine-2,4-diamine]	239 to 241 °C	5.52 to 7.00

The next lines start with the values.

melting point	pEC50 (Bmi-1 protein)	SMILES
156 to 158 °C	5.52 to 7.00	Cc1cccc(Nc2nc(N)cc(-n3c(C)nc4ccc(F)cc43)n2)c1 [Cpd 139, 6-(6-fluoro-2-methyl-1H-benzimidazol-1-yl)-N^2-(3-methylphenyl)pyrimidine-2,4-diamine]
127 to 129 °C	5.52 to 7.00	COc1cccc(Nc2nc(N)cc(-n3c(C)nc4ccc(F)cc43)n2)c1 [Cpd 140, 6-(6-fluoro-2-methyl-1H-benzimidazol-1-yl)-N^2-(3-methoxyphenyl)pyrimidine-2,4-diamine]
211 to 213 °C	5.52 to 7.00	Cc1nc2ccc(F)cc2n1-c1cc(N)nc(Nc2cccc(Cl)c2)n1 [Cpd 141, N^2-(3-chlorophenyl)-6-(6-fluoro-2-methyl-1H-benzimidazol-1-yl)pyrimidine-2,4-diamine]
166 to 167 °C	8.00 to 9.00	COc1ccc(Nc2nc(N)cc(-n3c(C)nc4ccc(F)cc43)n2)cc1F [Cpd 142, N^2-(3-fluoro-4-methoxyphenyl)-6-(6-fluoro-2-methyl-1H-benzimidazol-1-yl)pyrimidine-2,4-diamine]
158 to 161 °C	5.52 to 7.00	Cc1nc2ccc(F)cc2n1-c1cc(N)nc(Nc2ccccc2)n1 [Cpd 143, 6-(6-fluoro-2-methyl-1H-benzimidazol-1-yl)-N^2-phenylpyrimidine-2,4-diamine]
186 to 187 °C	8.00 to 9.00	COc1ccc(Nc2nc(N)cc(-n3c(C)nc4ccccc43)n2)cc1F [Cpd 148, N^2-(3-fluoro-4-methoxyphenyl)-6-(2-methyl-1H-benzimidazol-1-yl)pyrimidine-2,4-diamine]
172 to 173 °C	8.00 to 9.00	CCc1nc2ccccc2n1-c1cc(N)nc(Nc2ccc(Cl)cc2)n1 [Cpd 150, N^2-(4-chlorophenyl)-6-(2-ethyl-1H-benzimidazol-1-yl)pyrimidine-2,4-diamine]
144 to 145 °C	8.00 to 9.00	CCc1nc2ccccc2n1-c1cc(N)nc(Nc2ccc(OC)cc2)n1 [Cpd 151, 6-(2-ethyl-1H-benzimidazol-1-yl)-N^2-(4-methoxyphenyl)pyrimidine-2,4-diamine]
119 to 120 °C	5.52 to 7.00	CCc1nc2ccccc2n1-c1cc(N)nc(Nc2ccccc2C)n1 [Cpd 152, 6-(2-ethyl-1H-benzimidazol-1-yl)-N^2-(2-methylphenyl)pyrimidine-2,4-diamine]
119 to 121 °C	7.00 to 8.00	CCc1nc2ccccc2n1-c1cc(N)nc(Nc2ccc3c(c2)OCO3)n1 [Cpd 154, N^2-(1,3-benzodioxol-5-yl)-6-(2-ethyl-1H-benzimidazol-1-yl)pyrimidine-2,4-diamine]
104 to 106 °C	8.00 to 9.00	CCc1nc2ccccc2n1-c1cc(N)nc(Nc2ccc(OC)c(F)c2)n1 [Cpd 155, 6-(2-ethyl-1H-benzimidazol-1-yl)-N^2-(3-fluoro-4-methoxyphenyl)pyrimidine-2,4-diamine]
100 to 103 °C	7.00 to 8.00	CCc1nc2ccccc2n1-c1cc(N)nc(Nc2ccc(OC)c(Cl)c2)n1 [Cpd 156, N^2-(3-chloro-4-methoxyphenyl)-6-(2-ethyl-1H-benzimidazol-1-yl)pyrimidine-2,4-diamine]
104 to 106 °C	7.00 to 8.00	COc1ccc(Nc2nc(N)cc(-n3c(C)nc4ccccc43)n2)cn1 [Cpd 157, N^2-(6-methoxypyridin-3-yl)-6-(2-methyl-1H-benzimidazol-1-yl)pyrimidine-2,4-diamine]
185 to 187 °C	8.00 to 9.00	CCc1nc2ccc(F)cc2n1-c1cc(N)nc(Nc2ccc(Cl)cc2)n1 [Cpd 158, N^2-(4-chlorophenyl)-6-(2-ethyl-6-fluoro-1H-benzimidazol-1-yl)pyrimidine-2,4-diamine]
160 to 162 °C	5.52 to 7.00	CCc1nc2ccc(F)cc2n1-c1cc(N)nc(Nc2ccccc2)n1 [Cpd 159, 6-(2-ethyl-6-fluoro-1H-benzimidazol-1-yl)-N^2-phenylpyrimidine-2,4-diamine]
187 to 189 °C	8.00 to 9.00	CCc1nc2ccc(F)cc2n1-c1cc(N)nc(Nc2ccc(C)cc2)n1 [Cpd 160, 6-(2-ethyl-6-fluoro-1H-benzimidazol-1-yl)-N^2-(4-methylphenyl)pyrimidine-2,4-diamine]
166 to 168 °C	8.00 to 9.00	CCc1nc2ccc(F)cc2n1-c1cc(N)nc(Nc2ccc(OC)cc2)n1 [Cpd 161, 6-(2-ethyl-6-fluoro-1H-benzimidazol-1-yl)-N^2-(4-methoxyphenyl)pyrimidine-2,4-diamine]
